Data reported in patent US20060128667A1, “Hydroxyphosphonates and phosphonophosphates as apolipoprotein e modulators” (priority 2002, published 2006).
Where two headings read alike, the source gives them in different places.

System: apoE secretion by THP-1 cell line
Assay type: cell-based, human
Conditions: THP-1 cells, 3 days
Excerpt: The hydroxyphosphonates (Ia) and phosphonophosphates (Ib) of the invention can modulate (increase or decrease) the apoE production in plasma and in tissues. The activities of the compounds can be determined in an in vitro cell assay consisting in determining the effect of the test compound in modulating the secretion of apoE by an apoE secreting cell line (e.g., a monocyte-macrophage cell line such as the THP-1 cell line; a liver derived cell line such as the HepG2 cell line, an intestinal derived cell line such as the CaCo2 cell line or a brain derived cell line such as the astrocytoma CCF-STTG1 cell line).
THP-1 cell line (ATCC TIB-202) are cultured in RPMI 1640 (with 2 mM of L-glutamine and 2 g/l of glucose, Invitrogen) supplemented with 2 g/l of sodium hydrogen carbonate (Fluka), 10 U/ml of penicillin, 10 μg/ml of streptomycin (Penicillin-Streptomycin, Invitrogen), 20 μM of 2-mercaptoethanol (Fluka) and 10% FCS (Amimed). Cells are incubated at 37° C. and 5% CO2.
Cells are seeded in 24 well tissue culture plates (Falcon), 2×10^5 cells in 500 μl of culture medium per well or 6 well plates for RT-PCR purpose, 1×10^6 cells in 2.5 ml of medium. PMA (Phorbol 12-myristate 13-acetate, Alexis), (stock in DMSO (Fluka) at 1 mg/ml) and other compounds are diluted in ethanol and added to the cells at an ethanol final concentration not exceeding 1%. Same volume of ethanol is added in controls. Plates are incubated for 3 days at 37° C. and 5% CO2 to allow cell differentiation and apoE secretion.
Medium contained in the wells is harvested and centrifuged 5 min at 1200 rpm. Supernatants are store at −20° C. until apoE quantification. The cell pellets are resuspended in PBS and counted with a Z1 Coulter Counter. After a wash with PBS, adherent cells in the well bottoms are detached with trypsin-EDTA solution 10× (Invitrogen) diluted in PBS. The reaction is stopped with the addition of culture medium and the detached cells are counted.
ApoE was quantified by ELISA. 96 well plates (Costar) are coated with 5% of gelatine (from porcine skin, Fluka) in carbonate-bicarbonate buffer (Sigma) for 1 hour at 37° C. After removing the coating solution, 100 μl of THP-1 supernatant are added per well, diluted 5 times in buffer (PBS, 1% Top-Block (Juro), 0.1% Tween 20 (Fluka)). The incubation last 1 hour at 37° C., then the wells are washed 3 times with 200 μl of buffer. Plates are incubated for 1 hour at 37° C. with continuous stirring with the primary antibody (goat anti-human apoE IgG, Calbiochem) at a 10000-time dilution in buffer, 100 μl per well. After 3 washes, plates are incubated with the secondary antibody (rabbit anti-goat-IgG peroxidase conjugated, Sigma) diluted 5000 times, 100 μl per well, at 37° C. with shaking. Then the wells are washed 5 more times and the detection is achieved by adding 100 μl per well of o-phenylenediamine dihydrochloride (Sigma) and incubated for 15-20 minutes with shaking at room temperature. When the appropriated colour is reached, the reaction is stopped by adding 50 μl per well of 3 M sulfuric acid (Fluka) with shaking for 1 minute at room temperature. The absorbance is read at 492 nm versus 620 nm with a microplate photometer (Anthos Reader 2001).

| SMILES | % ApoE Change (compound 25 μM, 1.25 nM PMA) [%] | % ApoE Change (compound 25 μM, 2.5 nM PMA) [%] | % ApoE Change (compound 50 μM, 1.25 nM PMA) [%] | % ApoE Change (compound 50 μM, 2.5 nM PMA) [%] | % ApoE Change (compound 100 μM, 1.25 nM PMA) [%] | % ApoE Change (compound 100 μM, 2.5 nM PMA) [%] |
| --- | --- | --- | --- | --- | --- | --- |
| CCOP(=O)(OCC)OC(c1cccc(OCc2cccnc2)c1)P(=O)(OCC)OCC (stereo not drawn) [Dietbyl 1-(diethoxy-phosphinyloxy)-1-[3-(pyridin-3-yl-methoxy)-phenyl]-methylphosphonate] | 52 | 15 | 551 | 6 | 1351 | 98 |
| CCOP(=O)(OCC)OC(c1ccc(-c2ccccc2)cc1)P(=O)(OCC)OCC (stereo not drawn) [Diethyl 1-(diethoxy-phosphinyloxy)-1-(biphenyl-4-yl)-methyiphosphonate] | 172 | 138 | 198 | 119 | 142 | 71 |
| CCOP(=O)(OCC)OC(c1cccc(OCCCCCN2C(=O)c3ccccc3C2=O)c1)P(=O)(OCC)OCC (stereo not drawn) [Diethyl 1-(diethoxy-phosphinyloxy)-1-[3-(5-N-phthalimido-pentoxy)-phenyl]-methylphosphonate] | 3375 | 1196 | 1526 | 310 | −93 | −92 |
| CCOP(=O)(OCC)OC(c1cc(OC)c2c(c1)OCO2)P(=O)(OCC)OCC (stereo not drawn) [Diethyl 1-(diethoxy-phosphinyloxy)-1-[4-(3-methoxy-4,5-methylenedioxy)-phenyl]-methylphosphonate] | −19 | 7 | 3 | −5 | 33 | 40 |
| CCOP(=O)(OCC)OC(c1ccc(OCc2cccnc2)cc1)P(=O)(OCC)OCC (stereo not drawn) [Diethyl 1-(diethoxy-phosphinyloxy)-1-[4-(pyridin-3-yl-methoxy)-pheny]-methylphosphonate] | 95 | 179 | 189 | 245 | 535 | 434 |
| CCOP(=O)(OCC)C(O)c1ccc(OCc2ccccn2)cc1 (stereo not drawn) [Diethyl 1-hydroxy-1-[4-(pyridin-2-yl-methoxy)-phenyl]-methlyphosphonate] | −9 | 0 | 24 | 3 | 76 | 100 |
| CCOP(=O)(OCC)C(O)c1ccc(OCCCN2C(=O)c3ccccc3C2=O)cc1 (stereo not drawn) [Diethyl 1-hydroxy-1-{4-[3-N-phthalimido-propoxy]-phenyl}-methylphosphonate] | 543 | 304 | 961 | 396 | 1436 | 465 |
